Measurements reported in ChEMBL document CHEMBL5338815 (J Med Chem, 2023).
The source made the active and inactive calls. No cut-off for these calls is given here.

Key:
MDA-MB-231 = experiment: Reduction in H3K9me2 level in human MDA-MB-231 cells at 10 uM incubated for 48 hrs followed replaced with fresh medium measured after 24 hrs by Western blot analysis; format: functional, cell-based
[1] = molecular target: T1, Histone-lysine N-methyltransferase EHMT2 (Homo sapiens) (UniProt Q96KQ7); experiment: Binding affinity to G9a in human MDA-MB-231 cells assessed as protein stabilization at 37 to 41.7 degC at 10 uM incubated for 15 hrs in presence of G9a antibody by CETSA; format: cell-based
T1 sequence (whole entry): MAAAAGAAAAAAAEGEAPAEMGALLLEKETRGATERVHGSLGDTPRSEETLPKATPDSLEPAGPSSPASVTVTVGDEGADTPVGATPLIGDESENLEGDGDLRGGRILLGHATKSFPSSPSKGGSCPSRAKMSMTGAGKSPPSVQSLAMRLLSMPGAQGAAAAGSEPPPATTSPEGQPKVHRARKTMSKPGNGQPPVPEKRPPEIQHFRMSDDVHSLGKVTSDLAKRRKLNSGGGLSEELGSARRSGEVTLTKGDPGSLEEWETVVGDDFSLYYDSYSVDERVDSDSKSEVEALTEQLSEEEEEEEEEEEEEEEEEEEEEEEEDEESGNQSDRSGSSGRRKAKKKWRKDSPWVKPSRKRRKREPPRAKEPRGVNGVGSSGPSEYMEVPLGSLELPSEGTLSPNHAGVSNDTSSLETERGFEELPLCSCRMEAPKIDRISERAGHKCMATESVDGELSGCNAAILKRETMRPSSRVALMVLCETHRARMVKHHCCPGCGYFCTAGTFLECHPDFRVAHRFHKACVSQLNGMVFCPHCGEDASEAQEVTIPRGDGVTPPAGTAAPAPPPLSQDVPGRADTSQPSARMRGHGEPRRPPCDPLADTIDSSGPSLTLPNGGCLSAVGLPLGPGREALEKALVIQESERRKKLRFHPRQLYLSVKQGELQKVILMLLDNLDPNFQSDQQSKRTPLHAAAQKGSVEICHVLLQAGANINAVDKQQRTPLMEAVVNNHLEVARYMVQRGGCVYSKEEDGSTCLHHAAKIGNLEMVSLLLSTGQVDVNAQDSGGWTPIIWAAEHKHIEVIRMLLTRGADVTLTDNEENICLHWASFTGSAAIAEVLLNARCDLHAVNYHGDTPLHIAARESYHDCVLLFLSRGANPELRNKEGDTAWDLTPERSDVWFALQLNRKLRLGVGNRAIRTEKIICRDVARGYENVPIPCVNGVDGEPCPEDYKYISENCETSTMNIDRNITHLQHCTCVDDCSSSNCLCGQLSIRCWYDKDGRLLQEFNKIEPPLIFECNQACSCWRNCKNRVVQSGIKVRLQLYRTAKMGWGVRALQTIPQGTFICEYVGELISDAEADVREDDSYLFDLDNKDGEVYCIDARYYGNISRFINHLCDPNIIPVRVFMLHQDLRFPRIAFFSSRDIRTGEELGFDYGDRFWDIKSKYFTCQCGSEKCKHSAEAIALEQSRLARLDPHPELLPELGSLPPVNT

[2] = molecular target: T1, Histone-lysine N-methyltransferase EHMT2 (Homo sapiens); experiment: Covalent inhibition of recombinant G9a (unknown origin) assessed as adduct formation intensity by mass spectrometric analysis; settings: time <= 16.0 hrs, TDE = time-dependent effect
PANC-1 [3] = experiment: In vivo antitumor activity against human PANC-1 cells xenografted in Balb/c mouse model assessed as tumor growth inhibition at 2 mg/kg, ip treated for 22 days relative to control; format: functional; settings: PANC-1, 528 h, time 22 day, read-out: TGI
PANC-1 [4] = experiment: Inhibition of colony formation in human PANC-1 cells at […] incubated for 14 days drug medium changed for every 2 days by crystal violet staining based analysis; format: cell-based; settings: dose 2.5 µM, time 14.0 day
[5] = AUC (0 to infinity) in ICR mouse at 2 mg/kg, ip measured upto 24 hrs by LC-MS/MS analysis; format: ADME, organism-based; set-up: dose 2 mg/kg, time < 24 hrs, route ip; settings: in vivo
[6] = molecular target: T2, Histone-lysine N-methyltransferase EHMT1 (Homo sapiens) (UniProt Q9H9B1); experiment: Covalent inhibition of recombinant GLP (unknown origin) assessed as adduct formation intensity by measuring mass after 12 hrs by mass spectrometric analysis
T2 sequence (whole entry): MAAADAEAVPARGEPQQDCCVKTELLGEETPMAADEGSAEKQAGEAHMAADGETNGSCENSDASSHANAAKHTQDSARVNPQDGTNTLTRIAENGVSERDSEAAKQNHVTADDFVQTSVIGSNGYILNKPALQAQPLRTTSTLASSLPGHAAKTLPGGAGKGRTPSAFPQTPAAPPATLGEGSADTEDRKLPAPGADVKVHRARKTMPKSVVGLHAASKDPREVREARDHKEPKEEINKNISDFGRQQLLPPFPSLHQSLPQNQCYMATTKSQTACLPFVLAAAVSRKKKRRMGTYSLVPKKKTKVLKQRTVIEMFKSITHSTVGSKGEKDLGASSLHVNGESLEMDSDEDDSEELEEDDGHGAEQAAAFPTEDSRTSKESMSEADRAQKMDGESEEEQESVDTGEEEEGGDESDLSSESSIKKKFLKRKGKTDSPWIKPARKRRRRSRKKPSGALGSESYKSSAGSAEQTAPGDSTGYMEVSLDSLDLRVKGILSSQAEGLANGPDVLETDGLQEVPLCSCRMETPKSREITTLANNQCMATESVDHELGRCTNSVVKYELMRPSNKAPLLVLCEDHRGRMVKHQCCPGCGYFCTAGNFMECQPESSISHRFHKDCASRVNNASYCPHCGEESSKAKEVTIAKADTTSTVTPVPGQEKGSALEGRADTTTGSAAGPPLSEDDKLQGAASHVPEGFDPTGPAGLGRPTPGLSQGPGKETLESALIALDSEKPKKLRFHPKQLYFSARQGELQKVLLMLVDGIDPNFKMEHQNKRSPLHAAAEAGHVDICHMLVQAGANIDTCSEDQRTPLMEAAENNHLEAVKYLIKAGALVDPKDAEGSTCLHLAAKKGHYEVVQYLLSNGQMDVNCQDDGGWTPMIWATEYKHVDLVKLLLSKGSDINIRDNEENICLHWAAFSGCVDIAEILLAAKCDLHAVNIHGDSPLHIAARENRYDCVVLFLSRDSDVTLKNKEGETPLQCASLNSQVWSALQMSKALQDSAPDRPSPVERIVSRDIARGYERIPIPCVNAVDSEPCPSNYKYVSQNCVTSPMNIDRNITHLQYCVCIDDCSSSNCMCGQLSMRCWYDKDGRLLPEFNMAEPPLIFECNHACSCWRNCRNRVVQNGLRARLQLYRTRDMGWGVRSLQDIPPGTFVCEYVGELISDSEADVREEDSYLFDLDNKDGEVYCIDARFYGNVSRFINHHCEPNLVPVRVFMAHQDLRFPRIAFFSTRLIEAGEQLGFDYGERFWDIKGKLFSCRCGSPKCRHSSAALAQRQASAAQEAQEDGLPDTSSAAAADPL

[7] = Cmax in ICR mouse at 2 mg/kg, ip measured upto 24 hrs by LC-MS/MS analysis; format: ADME, organism-based; set-up: time < 24 hrs, dose 2 mg/kg, route ip; settings: in vivo
[8] = Metabolic stability in mouse liver microsomes assessed as half life at 0.1 uM measured upto 60 mins by LC-MS/MS analysis; format: ADME, Microsome

Activity [1]: Active
inhibition [2]: Tde
AUC(0-inf) [5]: 214 ng·h/mL
Activity [6]: 53800 Da
Cmax [7]: 316 ng/mL
half-life at 0.1 µM [8]: 1.19 h
Structure (SMILES): C=CC(=O)N(C)c1nc(NC2CCN(C)CC2)c2cc(OC)c(OCCCN3CCCC3)cc2n1
inhibition (MDA-MB-231): Active
inhibition in vivo at 2 mg/kg (PANC-1 [3]): 52.2%
inhibition (PANC-1 [4]): Active
